Results as given in patent US20040197222A1 (priority 2002, published 2004).
Entries after “also recorded” stand apart in the source; their conditions may differ. Where two headings read alike, the source gives them in different places.

Experiments:
[1] = test system: B. stearothermophilus spores (10^5, ATCC #7953); assay type: cell-based, Bacillus stearothermophilus
[2] = test system: B. subtilis var. niger spores (10^6, ATCC #9372); assay type: cell-based, Bacillus subtilis var. niger; settings: for germination of B. subtilis spores: exposure as long as 164 hours
[3] = test system: 10^6 spores of B. subtilis var. niger ATCC # 9372; assay type: cell-based, Bacillus subtilis var. niger; settings: trailer, 20 sites, 28 °C to 38 °C, 250 to 350 oz/mcf, 48 hours
[4] = test system: 10^5 of B. stearothermophilus ATCC # 7953; assay: Trailer field fumigation, combined-species spore strips incubated for B. stearothermophilus; assay type: cell-based, Bacillus stearothermophilus
[5] = test system: B. subtilis var. niger strips containing 10^8 spores; assay type: cell-based, Bacillus subtilis var. niger; settings: 28 °C to 38 °C, 250 to 350 oz/mcf, 48 hours
[6] = test system: Bacillus anthracis ANR-1 spores; assay type: cell-based; settings: 37 °C; for reduction in B. anthracis spores: all concentrations tested (80 to 320 mg/L)
[7] = test system: B. atrophaeus spores; assay type: cell-based
[8] = test system: G. stearothermophilus spores; assay type: cell-based

For CBr [methyl bromide], which “Spore Germination B. stearo.” value [1] is on record?
The value was “no and yes”.

And the “germination of Bacillus stearothermophilus spores” value [1]?
The value was “prevented from germinating”.

What about the “Spore Germination B. subtilis” value ([2]; 19 °C, MeBr 48 mg/l (theoretical), 104 hours, 5,000 mg-hr/l) of the same compound?
The value was “yes”.

And the “Spore Germination B. subtilis” value ([2]; 19 °C, MeBr 48 mg/l (theoretical), 146 hours, 7,000 mg-hr/l)?
The value was “yes”.

What about the “Spore Germination B. subtilis” value ([2]; 19 °C, MeBr 80 mg/l (theoretical), 112 hours, 9,000 mg-hr/l) of the same compound?
Its value is “yes”.

And the “Spore Germination B. subtilis” value ([2]; 19 °C, MeBr 80 mg/l (theoretical), 134 hours, 11,000 mg-hr/l)?
Its value is “yes”.

What about the “Spore Germination B. subtilis” value ([2]; 19 °C, MeBr 80 mg/l (theoretical), 164 hours, 13,120 mg-hr/l) of the same compound?
Its value is “yes”.

What about the “Spore Germination B. subtilis” value ([2]; 19 °C, MeBr 160 mg/l (theoretical), 164 hours, 26,240 mg-hr/l) of the same compound?
Its value is “yes”.

What about the “germination of B. subtilis spores” value ([2]; 19 °C, methyl bromide 48 to 80 mg/l (theoretical value)) of the same compound?
Its value is “still germinated”.

What about the “germination of B. subtilis spores” value ([2]; 19 °C, methyl bromide as high as 320 mg/l (theoretical value)) of the same compound?
The value was “still able to germinate”.

What about the “B. subtilis spore germination” value ([2]; 27 °C, methyl bromide 320 mg/l (theoretical value), 72 hours) of the same compound?
Its value is “successfully disabled”.

What about the “germination of the B. subtilis spores” value ([2]; 32 °C, methyl bromide 160 mg/l (theoretical value), 72 hours) of the same compound?
Its value is “not sufficient to stop germination; also recorded: not sufficient to prevent germination”.

And the “B. subtilis spore germination” value ([2]; 32 °C, methyl bromide 240 mg/l (theoretical value), 38 hours)?
Its value is “successfully disabled”.

What about the “Spore Germination B. subtilis” value ([2]; Example 1, 19 °C, MeBr 48 mg/l (theoretical), 63 hours, 3,000 mg-hr/l) of the same compound?
Its value is “yes”.

What about the “Spore Germination B. subtilis” value ([2]; Example 2, 19 °C, MeBr 48 mg/l (theoretical), 63 hours, 3,000 mg-hr/l) of the same compound?
The value was “yes”.

What about the “Spore Germination B. subtilis” value ([2]; Example 2, 20 °C, MeBr 320 mg/l (theoretical), 72 hours, 23,040 mg-hr/l) of the same compound?
The value was “yes”.

What about the “Spore Germination B. subtilis” value ([2]; Example 2, 20 °C, MeBr 320 mg/l (theoretical), 96 hours, 30,720 mg-hr/l) of the same compound?
Its value is “yes”.

And the “Spore Germination B. subtilis” value ([2]; Example 2, 27 °C, MeBr 240 mg/l (theoretical), 48 hours, 11,520 mg-hr/l)?
Its value is “yes”.

What about the “Spore Germination B. subtilis” value ([2]; Example 2, 27 °C, MeBr 320 mg/l (theoretical), 72 hours, 23,040 mg-hr/l) of the same compound?
Its value is “no”.

What about the “Spore Germination B. subtilis” value ([2]; Example 2, 27 °C, MeBr 320 mg/l (theoretical), 96 hours, 30,720 mg-hr/l) of the same compound?
The value was “no”.

What about the “Spore Germination B. subtilis” value ([2]; Example 2, 27 °C, MeBr 320 mg/l (theoretical), 96 hours, 30,720 mg-hr/l, chamber contained office commodities) of the same compound?
Its value is “no^4”.

What about the “Spore Germination B. subtilis” value ([2]; Example 3, 19 °C, MeBr 48 mg/l (theoretical), 63 hours, 3,000 mg-hr/l) of the same compound?
Its value is “no”.

What about the “Spore Germination B. subtilis” value ([2]; Example 3, 27 °C, MeBr 320 mg/l (theoretical), 62 hours, 19,776 mg-hr/l) of the same compound?
The value was “no”.

And the “Spore Germination B. subtilis” value ([2]; Example 3, 32 °C, MeBr 160 mg/l (theoretical), 72 hours, 11,520 mg-hr/l)?
Its value is “yes”.

What about the “Spore Germination B. subtilis” value ([2]; Example 3, 32 °C, MeBr 240 mg/l (theoretical), 48 hours, 11,520 mg-hr/l) of the same compound?
Its value is “no”.

And the “Spore Germination B. subtilis” value ([2]; Example 3, 32 °C, MeBr 240 mg/l (theoretical), 72 hours, 17,280 mg-hr/l)?
Its value is “no”.

And the “Spore Germination B. subtilis” value ([2]; Example 3, 32 °C, MeBr 320 mg/l (theoretical), 38 hours, 12,160 mg-hr/l)?
Its value is “no”.

And the “Spore Germination B. subtilis” value ([2]; Example 3, 32 °C, MeBr 320 mg/l (theoretical), 47 hours, 15,104 mg-hr/l)?
Its value is “no”.

And the “spores on all 10^6 B. subtilis strips, field fumigation” value [3]?
The value was “successfully disabled”.

And the “spores on all 10^6 B. subtilis strips, field fumigation” value ([3]; listed as MB)?
Its value is “killed”.

What about the “spores on all 10^5 B. stearothermophilus strips, field fumigation” value [4] of the same compound?
Its value is “successfully disabled; also recorded: killed”.

What about the “germination of spores in strips with concentrations of 10^8, field fumigation” value [5] of the same compound?
The value was “successfully disabled”.

And the “lowest total concentration at which treatment is effective (B. anthracis)” value ([6]; 48 hours)?
The value was 80 mg/L.

What about the “reduction in B. anthracis spores” value ([6]; 48 hours) of the same compound?
Its value is no less than 7 log.

What about the “reduction in B. anthracis spores” value ([6]; 48 hours, listed as MB) of the same compound?
Its value is no less than 6 log.

And the “B. anthracis spores in chamber 6” value ([6]; chamber 6, 48 hours)?
Its value is “completely killed”.

What about the “B. anthracis spores remaining (detection level)” value ([6]; out of 14 million, 80 to 320 mg/L, 48 hours) of the same compound?
Its value is less than 50 spores.

And the “Recovery of viable spores, commercial spore strips B. atrophaeus” value [7]?
The value was “no growth; also recorded: growth”.

And the “killing of B. atrophaeus spores on a spore strip” value [7]?
Its value is “insufficient to kill all B. atrophaeus spores”.

What about the “Recovery of viable spores, commercial spore strips G. stearothermophilus A” value [8] of the same compound?
The value was “no growth”.

And the “Recovery of viable spores, commercial spore strips G. stearothermophilus B” value [8]?
Its value is “no growth; also recorded: growth”.

What about the “killing of G. stearothermophilus spores on a spore strip” value [8] of the same compound?
The value was “capable of killing all G. stearothermophilus spores”.
